Drawing on US12466821B2 (Novartis AG, priority 2018, dated 2025), this text covers EC50 and IC50 for 38 compounds.

The EC50 is the midpoint of the concentration-response curve. The IC50 is the concentration that inhibits the measured activity by half.

For experiment [1], the system named is Luciferase-encoding HCMV, AD169 strain. Put plainly: CMV Luciferase assay (cellular herpesvirus replication). It is filed as cell-based. In a few lines: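 Reporter HCMV AD169 with luciferase driven by late pp28 promoter, so signal requires viral DNA replication; NN-NHDF fibroblasts in 2% FBS medium, compound (0.0159–50 or 0.00318–10 μM, 0.5% DMSO) added 1 h before infection at MOI 1. Luminescence read 72 hpi; EC50 from 4-parameter fit of control-normalized %.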

Experiment [2] addresses human HSV DNA polymerase UL30 (Human herpesvirus 1 (strain 17) (HHV-1) (Human herpes simplex virus 1), UniProt P04293). Kind of experiment: HSV polymerase biochemical assay (molecular beacon-based). In a few lines: (§1)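 Full-length wild-type N-terminal MBP-fusion polymerases from sf9 cells were used at 100 pM (CMV) or 625 pM (HSV) in Tris pH 7.5, 10 mM MgCl2, and preincubated with inhibitor for 30 min at RT. Reactions with 1.25 uM each dNTP, 200 nM primer and 100 nM molecular beacon ran 60 min (CMV) or 20 min (HSV) at RT. Fluorescence was read at 480/535 nm and IC50 derived.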

Experiment [3] deals with human CMV DNA polymerase UL54 (Human cytomegalovirus (strain AD169) (HHV-5) (Human herpesvirus 5), UniProt P08546). Put plainly: CMV polymerase biochemical assay (molecular beacon-based). The procedure, abridged: as §1
Setting [4] is: Human betaherpesvirus 5, AD169, read-out: CMV-Luc Cellular EC50.

Where two headings read alike, the source gives them in different places.

For the compound `N#Cc1ccc(CNC(=O)c2ccc3n(c2=O)CCN(CC2(S(=O)(=O)C4COC4)CC2)C3=O)cc1F` [Example 29], the EC50 in experiment [1] (setting [4]) was found to be 86.4 nM. In addition, the IC50 stood at 63.5 nM in experiment [2] and 1.8 nM in experiment [3].
As to `O=C(NCc1ccc(Cl)cc1)c1ccc2n(c1=O)CCN(CC1(S(=O)(=O)C3COC3)CC1)C2=O` [Example 30], in experiment [1] (setting [4]), the EC50 is 36.3 nM. Besides, the IC50 was 38 nM in experiment [2] and 1.5 nM in experiment [3].
In the case of `CC(C)S(=O)(=O)C1(CN2CCn3c(ccc(C(=O)NCc4ccc(Cl)cc4)c3=O)C2=O)CC1` [Example 31], the EC50 in experiment [1] (setting [4]) is 12.4 nM. Besides, the concentration for half-maximal inhibition (IC50) in experiment [2] stood at 30.6 nM; in experiment [3], 0.9 nM.
The corresponding values for `CC(C)S(=O)(=O)C1(CN2CCn3c(ccc(C(=O)NCc4ccc(C#N)cc4)c3=O)C2=O)CC1` [Example 32] are 52 nM, 49.5 nM and 1.6 nM.
The like results for `CC(C)S(=O)(=O)C1(CN2CCn3c(ccc(C(=O)NCc4ccc(C#N)c(F)c4)c3=O)C2=O)CC1` [Example 33] were, in that order, 33.1 nM, 48.2 nM and 1 nM.
For `CCS(=O)(=O)C1(CN2CCn3c(ccc(C(=O)NCc4ccc(C#N)c(F)c4)c3=O)C2=O)CC1` [Example 34], the concentration for a half-maximal effect (EC50) in experiment [1] (setting [4]) is 41.2 nM. The results for the half-inhibitory concentration (IC50) in experiment [2] and in experiment [3] were 69.5 nM and 1.6 nM, respectively.
The corresponding values for `CCS(=O)(=O)C1(CN2CCn3c(ccc(C(=O)NCc4ccc(C#N)cc4)c3=O)C2=O)CC1` [Example 35] are 54.4 nM, 68.9 nM and 2.6 nM.
The like results for `CCS(=O)(=O)C1(CN2CCn3c(ccc(C(=O)NCc4ccc(Cl)cc4)c3=O)C2=O)CC1` [Example 36] were, in that order, 24.9 nM, 42.3 nM and 0.7 nM.
The corresponding values for `CS(=O)(=O)C1(CN2CCn3c(ccc(C(=O)NCc4ccc(Br)cc4)c3=O)C2=O)CC1` [Example 37] are 62.3 nM, 111 nM and 1.3 nM.
Turning to `CS(=O)(=O)C1(CN2CCn3c(ccc(C(=O)NCc4ccc(C#N)cc4F)c3=O)C2=O)CC1` [Example 38], the 50% effective concentration (EC50) in experiment [1] (setting [4]) came to 868 nM. Moreover, the 50% inhibitory concentration (IC50) was 630 nM in experiment [2] and 12 nM in experiment [3].
The like results for `CS(=O)(=O)C1(CN2CCn3c(ccc(C(=O)NCc4ccc(C#N)c(F)c4)c3=O)C2=O)CC1` [Example 39] were, in that order, 102 nM, 105 nM and 3.5 nM.
`CS(=O)(=O)C1(CN2CCn3c(ccc(C(=O)NCc4ncc(Cl)cn4)c3=O)C2=O)CC1` [Example 40]: the concentration giving a half-maximal response (EC50) in experiment [1] (setting [4]) was determined as 10000 nM. Besides, the IC50 in experiment [2] turned out to be 28300 nM; in experiment [3], 480 nM.
Regarding `CS(=O)(=O)C1(CN2CCn3c(ccc(C(=O)NCc4ccc(Cl)c(F)c4)c3=O)C2=O)CC1` [Example 41], the EC50 in experiment [1] (setting [4]) was 42.9 nM. The IC50 was found to be 123 nM in experiment [2] and 2.8 nM in experiment [3].
As for `CS(=O)(=O)C1(CN2CCn3c(ccc(C(=O)NCC4CCC5(CC4)CC5)c3=O)C2=O)CC1` [Example 42], the EC50 in experiment [1] (setting [4]) worked out at 7490 nM. Moreover, the half-maximal inhibitory concentration (IC50) in experiment [2] amounted to 12800 nM; in experiment [3] it was 43.2 nM.
The corresponding values for `CS(=O)(=O)C1(CN2CCn3c(ccc(C(=O)NCC4CCC(F)(F)CC4)c3=O)C2=O)CC1` [Example 43] are 6420 nM, 7860 nM and 62.5 nM.
In the case of `C[C@H](NC(=O)c1ccc2n(c1=O)CCN(CC1(S(C)(=O)=O)CC1)C2=O)c1ccc(Cl)cc1` [Example 44], in experiment [1] (setting [4]), the EC50 is 10000 nM. In addition, the figures for the IC50 in experiment [2] and in experiment [3] were 62900 nM and 763 nM, respectively.
`C[C@@H](NC(=O)c1ccc2n(c1=O)CCN(CC1(S(C)(=O)=O)CC1)C2=O)c1ccc(Cl)cc1` [Example 45]: the EC50 in experiment [1] (setting [4]) was found to be 10000 nM. The IC50 in experiment [2] turned out to be 130000 nM; in experiment [3], 458 nM.
The like results for `CS(=O)(=O)C1(CN2CCn3c(ccc(C(=O)NCc4ccc(C#N)cc4)c3=O)C2=O)CC1` [Example 46] were, in that order, 229 nM, 127 nM and 6 nM.
With `CS(=O)(=O)C1(CN2CCn3c(ccc(C(=O)NCc4ccc(F)cc4)c3=O)C2=O)CC1` [Example 47], the concentration for a half-maximal effect (EC50) in experiment [1] (setting [4]) was determined as 783 nM. Also, the concentration for half-maximal inhibition (IC50) in experiment [2] was found to be 393 nM; in experiment [3] it was 20 nM.
In the case of `CS(=O)(=O)C1(CN2CCn3c(ccc(C(=O)NCc4ccc(Cl)cc4)c3=O)C2=O)CC1` [Example 48], the EC50 in experiment [1] (setting [4]) was 33.3 nM. Also, the IC50 in experiment [2] stood at 51.3 nM; in experiment [3], 3 nM.
`CS(=O)(=O)C1(CN2CCn3c(ccc(C(=O)NCc4ccc(Cl)cc4)c3=O)C2=O)CCC1` [Example 49]: in experiment [1] (read-out: CMV-Luc Cellular EC50), the half-maximal effective concentration (EC50) is 2800 nM. The IC50 came to 2520 nM in experiment [2] and 41.8 nM in experiment [3].
As for `O=C(NCc1ccc(Cl)cc1)c1ccc2n(c1=O)CCN(CCC1CCCS1(=O)=O)C2=O` (stereo not drawn) [Example 50-1, N-(4-chlorobenzyl)-2-(2-(1,1-dioxidotetrahydrothiophen-2-yl)ethyl)-1,6-dioxo-2,3,4,6-tetrahydro-1H-pyrido[1,2-a]pyrazine-7-carboxamide], in experiment [1] (setting [4]), the 50% effective concentration (EC50) was 306 nM. Also, the IC50 in experiment [2] worked out at 188 nM; in experiment [3], 35.6 nM.
Regarding `O=C(NCc1ccc(Cl)nc1)c1ccc2n(c1=O)CCN(CC1(S(=O)(=O)C3(CO)CC3)CC1)C2=O` [Example 50-2], in experiment [1] (setting [4]), the concentration for a half-maximal effect (EC50) came out at 122 nM. The half-inhibitory concentration (IC50) in experiment [2] worked out at 72.8 nM; in experiment [3], 6.4 nM.
The like results for `CS(=O)(=O)CCCN1CCn2c(ccc(C(=O)NCc3ccc(Cl)cc3)c2=O)C1=O` [Example 52] were, in that order, 2950 nM, 791 nM and 163 nM.
The corresponding values for `O=C(NCc1ccc(Cl)cc1)c1ccc2n(c1=O)CCN(C1CCS(=O)(=O)C1)C2=O` (stereo not drawn) [Example 53-1] are 11200 nM, 4440 nM and 729 nM.
With `CCS(=O)(=O)CCN1CCn2c(ccc(C(=O)NCc3ccc(Cl)cc3)c2=O)C1=O` [Example 53], in experiment [1] (setting [4]), the EC50 came out at 1460 nM. The IC50 in experiment [2] was 365 nM; in experiment [3], 149 nM.
The corresponding values for `CN(CCN1CCn2c(ccc(C(=O)NCc3ccc(Cl)cc3)c2=O)C1=O)C(=O)OC(C)(C)C` [Example 54, tert-butyl (2-(7-((4-chlorobenzyl)carbamoyl)-1,6-dioxo-3,4-dihydro-1H-pyrido[1,2-a]pyrazin-2(6H)-yl)ethyl)(methyl)carbamate] are 4340 nM, 1930 nM and 292 nM.
Regarding `COCCN1CCn2c(ccc(C(=O)NCc3ccc(Cl)cc3)c2=O)C1=O` [Example 55], the 50% effective concentration (EC50) in experiment [1] (setting [4]) was 6710 nM. The IC50 in experiment [2] came out at 11500 nM; in experiment [3], 708 nM.
Take `O=C(NCc1ccc(Cl)cc1)c1ccc2n(c1=O)CCN(CCN1CCCC1=O)C2=O` [Example 56]: in experiment [1] (setting [4]), the EC50 was 3830 nM. For the same compound, the IC50 was found to be 4760 nM in experiment [2] and 312 nM in experiment [3].
The like results for `CC1(CN2CCn3c(ccc(C(=O)NCc4ccc(Cl)cc4)c3=O)C2=O)COC1` [Example 57-1] were, in that order, 29200 nM, 31300 nM and 2660 nM.
As for `O=C(NCc1ccc(Cl)cc1)c1ccc2n(c1=O)CCN(CCN1CCCCC1=O)C2=O` [Example 57], the EC50 in experiment [1] (setting [4]) amounted to 7260 nM. Besides, the IC50 in experiment [2] is 6130 nM; in experiment [3], 374 nM.
The like results for `CN(CCN1CCn2c(ccc(C(=O)NCc3ccc(Cl)cc3)c2=O)C1=O)S(C)(=O)=O` [Example 58, N-(4-chlorobenzyl)-2-(2-(N-methylmethylsulfonamido)ethyl)-1,6-dioxo-2,3,4,6-tetrahydro-1H-pyrido[1,2-a]pyrazine-7-carboxamide] were, in that order, 883 nM, 846 nM and 75.6 nM.
The corresponding values for `CCS(=O)(=O)N(C)CCN1CCn2c(ccc(C(=O)NCc3ccc(Cl)cc3)c2=O)C1=O` [Example 59] are 1640 nM, 1480 nM and 138 nM.
Take `CN(CCN1CCn2c(ccc(C(=O)NCc3ccc(Cl)cc3)c2=O)C1=O)S(=O)(=O)C1CC1` [Example 60]: in experiment [1] (setting [4]), the concentration giving a half-maximal response (EC50) stood at 1250 nM. Besides, the half-inhibitory concentration (IC50) in experiment [2] worked out at 888 nM; in experiment [3], 124 nM.
`COC(=O)N(C)CCN1CCn2c(ccc(C(=O)NCc3ccc(Cl)cc3)c2=O)C1=O` [Example 61-1]: the concentration giving a half-maximal response (EC50) in experiment [1] (setting [4]) stood at 5000 nM. For the same compound, the half-inhibitory concentration (IC50) in experiment [2] was 10800 nM; in experiment [3] it was 740 nM.
The like results for `CC(=O)N(C)CCN1CCn2c(ccc(C(=O)NCc3ccc(Cl)cc3)c2=O)C1=O` [Example 61] were, in that order, 6340 nM, 5560 nM and 364 nM.
The like results for `CS(=O)(=O)NCCN1CCn2c(ccc(C(=O)NCc3ccc(Cl)cc3)c2=O)C1=O` [Example 62, N-(4-chlorobenzyl)-2-(2-(methylsulfonamido)ethyl)-1,6-dioxo-2,3,4,6-tetrahydro-1H-pyrido[1,2-a]pyrazine-7-carboxamide] were, in that order, 19900 nM, 4300 nM and 657 nM.
For `CS(=O)(=O)N1CCC[C@H]1CN1CCn2c(ccc(C(=O)NCc3ccc(Cl)cc3)c2=O)C1=O` [Example 63-1], the concentration giving a half-maximal response (EC50) in experiment [1] (setting [4]) was found to be 42700 nM. In addition, the IC50 in experiment [2] was found to be 23400 nM; in experiment [3], 1400 nM.
